For series [1] the following is noted: cited from earlier work.
The nature of series [2]: HPLC/UV (264 nm) chemical impurity assay; ascorbic acid related impurity. It is filed as physicochemical. Particulars: 5 mg/mL, pH 6 ascorbic acid solution with free 18F (129 mCi/mL). The procedure: Analytical HPLC method was used. The method employs UV detection at 264 nm for chemical impurities, and an Eckert & Ziegler model B-FC-1000 gamma detector for radiochemical assays.
Since the peak has not been previously observed in preparations in the absence of ascorbic acid it is likely ascorbic acid related and was further investigated. A decayed sample from the lot produced was analyzed further and confirmed the presence of the peak, FIG. 35. […] The sample was assayed for chemical impurities at T=0, 4, 10 and 24 hours when held inverted at ambient conditions. […] The impurity only formed with radioactivity exposure but not when stored in light or dark at ambient conditions (see FIG. 37).

For series [3] the following is noted: @ 10 hr; ascorbic acid at 10 mg/mL (Fawdry 2007); cited from earlier work.
Series [4] is described as follows: Retention/recovery of [19F]DCFPyL on the HLB solvent exchange cartridge as a function of pH (load, wash, product samples). It is filed as physicochemical. The procedure:
The goal of this study was to characterize the impact of pH on the retention of [^18F]DCFPyL on the HLB solvent exchange cartridge. […] The pH of one solution was adjusted to 2 and a second to 4 by adding 1N HCl. A third solution was used without adjusting its native pH of 7.2. Using a BD syringe, 10 mL of each solution was spiked with [^19F]DCFPyL (50 μg) by adding 0.5 mL of a 100 μg/mL stock solution. Each spiked solution was loaded onto a HLB cartridge at a rate of approximately 2 mL/min. […] The eluent from each HLB cartridge was individually collected and identified as the “wash solution.” Each HLB cartridge was then individually eluted with 1 mL of ethanol, the samples collected and are identified as the “product sample.” The load solution and wash solution samples were analyzed using a drug product chemical impurity assay after a 1 to 10 mL dilution with saline, while the ethanolic product samples were analyzed following a 0.5 to 10 dilution with saline.
The goal of this study was to characterize the impact of pH on the retention of ^18F-DCFPyL on the HLB solvent exchange cartridge. […] The pH of one solution was adjusted to 2 and a second to 4 by adding 1N HCl. A third solution was used without adjusting its native pH of 7.2. At this pH the solution will be mainly sodium ascorbate. Using a BD syringe, 10 mL of each solution was spiked with ^19F-DCFPyL (50 μg) by adding 0.5 mL of a 100 μg/mL stock solution. Each spiked solution was loaded onto an HLB cartridge at a rate of approximately 2 mL/min and the solution collected after the HLB column is identified as the load solution. […] Each HLB cartridge was then individually eluted with 1 mL of ethanol, the solution collected after the HLB column is identified as the product sample. The load solution and wash solution samples were analyzed using the drug product chemical impurity assay after a 1 to 10 mL dilution with saline, while the ethanolic product samples were analyzed following a 0.5 to 10 mL dilution with saline.

Setting [5] is: HLB pH 2 Product, first Ethanol elution.
Setting [6] is: HLB pH 2 Product, second Ethanol elution.
Setting [7] is: HLB pH 2 Product, third Ethanol elution.

Bounds are passed on as bounds.

As for `O=C1O[C@H]([C@@H](O)CO)C(O)=C1O` [ascorbic acid], the pKa result in series [1] is “about 4.2”. For the same compound, the “4.6 min RT peak (HPLC UV)” value in series [2] (T = 0 hours, ambient) is on record as “not present”. In series [2] (T = 24 hours, relative response factor of 1 to [19F]-DCFPyL standard), the “4.6 min RT peak (HPLC UV), approximate concentration” value was approximately 1.75 µg/mL.
Regarding `OC[C@H]1O[C@@H](O)[C@H]([18F])[C@@H](O)[C@@H]1O` [FDG], the de-fluorination entry in series [3] is reported as “less than 2%”.
For the compound `O=C(O)CC[C@H](NC(=O)N[C@@H](CCCCNC(=O)c1ccc(F)nc1)C(=O)O)C(=O)O` [Lot 19F-DCFPyL], the “retention by the HLB cartridge” value in series [4] (10 mg/mL ascorbic acid, pH 7.2) was “not meaningfully retained”. Moreover, the “19F-DCFPyL recovered (%)” value in series [4] (HLB Saline pH 7 Rinse) worked out at 0.0%; in series [4] (HLB pH 2 Load) it was 0.0%; in series [4] (setting [5]) it was 69.5%; in series [4] (setting [6]) it was 21.5%; in series [4] (setting [7]) it was 7.1%; in series [4] (HLB pH 2 Rinse), 0.0%. The “19F-DCFPyL recovered (%)” value in series [4] (HLB pH 4 Load) was found to be 22.0%; in series [4] (HLB pH 4 Product), 57.7%; in series [4] (HLB pH 4 Rinse), 0.0%; in series [4] (HLB pH 7 Load), 87.4%; in series [4] (HLB pH 7 Product) it was 0.0%. For the same compound, the “μg of 19F-DCFPyL recovered” value in series [4] (HLB Saline pH 7 Rinse) was “Not Detected”; in series [4] (HLB pH 2 Load) it was “Not Detected”; in series [4] (setting [5]), 35.423 µg; in series [4] (setting [6]), 10.946 µg; in series [4] (setting [7]) it was 3.629 µg; in series [4] (HLB pH 2 Rinse), “Not Detected”. Further, the “μg of 19F-DCFPyL recovered” value was 10.504 µg in series [4] (HLB pH 4 Load); 27.989 µg in series [4] (HLB pH 4 Product); “Not Detected” in series [4] (HLB pH 4 Rinse); 38.239 µg in series [4] (HLB pH 7 Load); “Not Detected” in series [4] (HLB pH 7 Product); 50.976 µg in series [4] (pH 2 Control). Also, the “μg of 19F-DCFPyL recovered” value in series [4] (pH 4 Control) came out at 47.665 µg; in series [4] (pH 7 Control) it was 43.759 µg. In series [4] (pH 2), the “19F-DCFPyL in the load or wash samples” value is “not detected”. Also, the “19F-DCFPyL in the product sample, % of the total amount recovered from all samples” value in series [4] (pH 4) is given as “approximately 68%”. The “19F-DCFPyL recovered in the load sample” value in series [4] (pH 4) is “approximately 31%”. In series [4] (pH 4), the “19F-DCFPyL recovered in the load sample (mass)” value is less than 1 µg. Also, the “19F-DCFPyL recovered in the wash samples” value in series [4] (pH 7.2) is 3.8 µg/mL.

The record behind these values is US20250019350A1, “SYNTHESIS OF THE PROSTATE SPECIFIC MEMBRANE ANTIGEN (PSMA) RADIOLABELED INHIBITOR [18F]DCFPYL” (Progenics Pharmaceuticals, Inc, priority 2023, published 2025).
